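The compound was tested at five concentrations on cells cultured in 96-well plates, with a 48-hour exposure period. Abbreviation: GI50, concentration required for 50% inhibition of growth. The concentration for full growth arrest is given as TGI.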 A value given as a limit tells only on which side of the number the result lay.

Holding throughout (assay): NCI-60 cell line screen, 48 h
In test [1] the test system is A549 NSCLC.
The test system of test [2] is ACHN renal.
The test system of test [3] is OVCAR-4 ovarian.
Test [4] concerns SK-OV-3 ovarian.
Test [5] concerns SN12C renal.
Test [6] deals with SNB-19 CNS.
The test system of test [7] is UACC-257 melanoma.
Test [8] concerns UACC-62 melanoma.
Test [9] concerns BT-549 breast.
The subject of test [10] is CAKI-1 renal.

With `Nc1ccccc1C(=O)C(Br)C(Br)c1ccc2c(c1)OCO2` (configuration not stated), the TGI in test [1] came to 57.3 µM; in test [2], 51 µM; in [3] it was 59.8 µM; in test [4], 84.4 µM; in [5], 72.5 µM; in test [6] it was 89 µM. Also, the TGI is 44.9 µM in [7] and 35.2 µM in [8].
Regarding `CN1N=C(c2ccncc2)OC1c1ccccc1F` (configuration not stated), the TGI in [1], in [2], in test [3], in test [4], in [5] and in test [6] was greater than 100 µM in each case. In addition, the TGI in test [8] was greater than 100 µM.
Regarding `O=C1CS(=O)(=O)C(c2cccc(Oc3ccccc3)c2)N1c1cc(Cl)ccc1Cl` (configuration not stated), the TGI in [1] was greater than 100 µM; in test [2], 43.1 µM; in test [9], 41.3 µM; in test [4], 48.9 µM; in test [5], 39 µM; in test [6], 57 µM. The TGI is 55.9 µM in test [7] and 31.9 µM in [8].
In the case of `c1ccc2c(c1)CCCC/C2=N/OCC1CO1` (configuration not stated), the TGI in test [1], in [2], in test [5] and in test [7] was greater than 100 µM each time.
Consider `COc1cc(C2c3cc4c(cc3[C@@H](Nc3ccc5c(c3)OCO5)C3COC(=O)[C@H]23)OCO4)cc(OC)c1O` (some centres not stated), for which the TGI in [1] is 2.56 µM; in test [10], 1.43 µM; in [4], 16.3 µM; in test [6], 30.1 µM; in [7], 8.38 µM; in test [8], 5.35 µM.
Take `O=C(CC(C(=O)c1ccco1)c1ccco1)c1ccco1` (configuration not stated): the TGI in test [1], in [2], in test [10], in [3], in test [4] and in [5] was greater than 100 µM each time. The TGI in test [7] and in [8] was greater than 100 µM in each case.
Turning to `O=[N+]([O-])/C(Cl)=C(\NCCN/C(C(Cl)=C(Cl)Cl)=C(/Cl)[N+](=O)[O-])C(Cl)=C(Cl)Cl`, the TGI in test [1], in test [2], in test [9], in test [10], in test [4] and in test [5] was greater than 100 µM throughout. Moreover, the TGI in test [6] and in test [8] was greater than 100 µM throughout.
On to `COc1ccc(N2C(=O)C3c4[nH]c5ccccc5c4C4CCCCCCCCCC4C3C2=O)cc1` (configuration not stated), for which the TGI in test [1], in [2], in [10], in [3], in test [4] and in test [5] was greater than 10 µM each time. Further, the TGI in test [6] and in [8] was greater than 10 µM each time.
Regarding `CC(=O)Oc1c(C)c(C)c2c(c1C)CCC(C)(CC(=O)OCCCCCCCCCCC[P+](c1ccccc1)(c1ccccc1)c1ccccc1)O2` (configuration not stated), the GI50 in test [9] is 0.314 µM; in [10] it was 1.72 µM; in test [4], 0.264 µM; in test [7] it was 0.268 µM; in [8], 0.291 µM. Also, the TGI was 0.99 µM in test [9]; 3.27 µM in test [10]; 0.932 µM in test [4]; 0.78 µM in [7]; 0.982 µM in test [8].
As for `CC1(C)CC(C#Cc2ccccc2)CC(C)(C)N1O`, the TGI was 75.5 µM in [1]; greater than 100 µM in test [2]; 61.3 µM in test [10]; greater than 100 µM in [3]; greater than 100 µM in test [4]; 28.8 µM in test [5]. The TGI is greater than 100 µM in test [6], 33 µM in test [7] and 42.5 µM in [8].
As to `CCOC(=O)NC(Nc1c(F)c(F)c(F)c(F)c1F)(C(F)(F)F)C(F)(F)F`, the TGI in test [1], in [2], in test [9], in [10], in [4] and in test [5] was greater than 100 µM each time. Moreover, the TGI in test [6], in [7] and in [8] was greater than 100 µM in each case.
For the compound `CC(C)N1CN(c2ccccc2)C2(CCN(CCCC(=O)c3ccc(F)cc3)CC2)C1=O`, the TGI in [1] was greater than 100 µM; in test [2] it was 42.5 µM; in test [10], 34.7 µM; in [3], greater than 76 µM; in test [4], greater than 100 µM; in test [5], greater than 55.4 µM. Also, the results for the TGI in [6], in test [7] and in test [8] were greater than 56 µM, 8.94 µM and 38.7 µM, respectively.
Turning to `C[C@H]1OC(=O)[C@@H]2N=NN(Cc3ccccc3)[C@H]12`, the TGI in test [1], in test [2], in test [10], in test [3], in test [4] and in test [5] was greater than 100 µM in each case. Moreover, the TGI in [6] and in test [8] was greater than 100 µM each time.
Take `COc1cc([N+](=O)[O-])c(OC)c2c(Nc3ccc(S(=O)(=O)O)c4cc(S(=O)(=O)O)cc(S(=O)(=O)O)c34)cc(C)nc12`: the TGI in test [1], in [9], in [10], in test [4], in test [5] and in test [7] was greater than 100 µM throughout. The compound also showed a TGI in [8] greater than 100 µM.
As to `CSc1nc2c(ncn2C2OC(CO)C(O)C(O)C2O)c(=O)[nH]1` (configuration not stated), the TGI in test [1], in test [3], in test [4], in test [5], in [6] and in test [7] was greater than 100 µM throughout. Further, the TGI in test [8] was greater than 100 µM.
As to `C=C1C(=O)C23C(O)CC4C5(C)CCCC4(C(O)OC5)C2C(OC(C)=O)CC1C3O` (configuration not stated), the TGI in [1] amounted to 51.5 µM; in [2], 25.3 µM; in test [10] it was 17.8 µM; in [3], 27.8 µM; in test [4], 37.1 µM; in test [5] it was 24.3 µM. In addition, the TGI in test [6] was determined as 28.1 µM; in test [8], 19.8 µM.
As for `CC#CC(O)(C(=O)OC1CC(C)N(C)C(C)(C)C1)C1CCCC1` (configuration not stated), the TGI in [1], in test [2], in [9], in test [10], in test [4] and in [5] was greater than 100 µM each time. The TGI in test [6], in test [7] and in [8] was greater than 100 µM in each case.
For `O=C1C(C(O)(C(F)(F)F)C(F)(F)F)CCC1C(O)(C(F)(F)F)C(F)(F)F` (configuration not stated), the TGI was greater than 65.4 µM in test [1]; greater than 61.5 µM in [2]; 19.8 µM in test [10]; greater than 100 µM in [3]; greater than 100 µM in test [4]; 30.9 µM in test [5]. The TGI in test [6] is greater than 100 µM; in test [7], 34.8 µM; in test [8] it was greater than 100 µM.
Turning to `CON(C)C(=O)C1CCCO1` (configuration not stated), the TGI in test [1], in test [2], in test [10], in test [3], in test [4] and in [5] was greater than 100 µM throughout. Besides, the TGI in test [6], in [7] and in test [8] was greater than 100 µM in each case.
Regarding `O=C(/C=C/c1ccc2c(c1)OCO2)Cc1nc2ccccc2[nH]c1=O`, the TGI in [1] is 62 µM; in test [2] it was 74.3 µM; in test [9], greater than 100 µM; in test [10], 48.1 µM; in [4], 33.5 µM; in test [5] it was 60.2 µM. For the same compound, the TGI in test [6] is 49.4 µM; in [7] it was 59.5 µM; in [8], greater than 100 µM.
Consider `CCN(CCCl)c1cc(CN(C)C)cc(NC(=O)c2ccc(C(=O)Nc3cccc(CN(C)C)c3)cc2)c1`, for which the TGI was 14.5 µM in test [1]; 10.7 µM in test [2]; greater than 100 µM in test [10]; 6.08 µM in test [3]; greater than 100 µM in test [4]; 10.6 µM in [5]. Also, the TGI in test [6] stood at 1.34 µM; in [7], 3.67 µM; in test [8] it was 4.07 µM.
On to `CCOC(=O)C1CCC(=O)N1C(=O)c1ccccc1Cl` (configuration not stated), for which the TGI in test [1], in test [2], in test [9], in test [10], in test [5] and in [6] was greater than 100 µM in each case. Further, the TGI in test [7] is greater than 100 µM; in test [8], 95.5 µM.
`COc1ccc(/C=N/n2c(C)nc3c(sc(=S)n3-c3ccccc3)c2=O)cc1`: the TGI in test [1], in test [2], in [4], in test [6], in [7] and in test [8] was greater than 100 µM each time.
Regarding `CN1CCN(C2=C(Cl)C3(OCCS3)C(F)(F)C2(F)F)CC1` (configuration not stated), the TGI in test [1], in test [2], in test [10], in test [3], in test [4] and in [5] was greater than 100 µM each time. The TGI in test [6], in test [7] and in [8] was greater than 100 µM throughout.
Turning to `CCOC(=O)c1ccc(Nc2nc3ccc(C(F)(F)F)cc3nc2C(=O)OCC)cc1`, the TGI in [1], in test [2], in [9], in [10], in test [4] and in [5] was greater than 100 µM each time. Besides, the TGI in test [6], in test [7] and in [8] was greater than 100 µM in each case.
Take `CN(C)CCCNC(=O)c1c(O)c2ccccc2n(C)c1=O`: the TGI in [1], in [2], in test [9], in test [10], in [3] and in test [4] was greater than 100 µM in each case. Moreover, the TGI in [5], in test [7] and in test [8] was greater than 100 µM in each case.
For the compound `COc1ccc(C2c3cc4c(cc3OC(NCCO)C2C)OCO4)cc1` (configuration not stated), the TGI in test [1] is 68.8 µM; in test [2] it was 93.1 µM; in [9], 59 µM; in test [10] it was 77.1 µM; in [4] it was 87.6 µM; in [5], 71.7 µM. Besides, the results for the TGI in test [6], in test [7] and in [8] were greater than 100 µM, 72.4 µM and greater than 100 µM, respectively.
For the compound `COc1cc(/C=C2\CCC(C)/C(=C\c3cc(OC)c(OC)c(OC)c3)C2=O)cc(OC)c1OC` (configuration not stated), the TGI in test [1] was greater than 100 µM; in test [2], 13.1 µM; in test [9] it was 3.53 µM; in [10], 6.71 µM; in test [4] it was 62 µM; in test [5] it was 19.2 µM. The TGI came out at 18.4 µM in [6], 21.3 µM in [7] and 6.89 µM in [8].
`CN(C)c1cccc2c1C(=O)C=CC21c2ccc(N(C)C)c3c(N(C)C)ccc(c23)C(c2ccccc2)C1c1ccccc1` (configuration not stated): the TGI was determined as 71.7 µM in test [1]; 26.6 µM in test [2]; 17.2 µM in test [10]; 27.2 µM in test [3]; 31.8 µM in test [4]; 32.7 µM in test [5]. Moreover, the TGI in [6] was found to be 44.4 µM; in test [7], 27.2 µM; in test [8], 54.7 µM.
For the compound `O=C1C2=Nc3ccccc3C(O)(C(=O)O)N2c2ccccc21` (configuration not stated), the TGI in test [1] was 24.6 µM; in test [2], greater than 100 µM; in test [10], greater than 100 µM; in [3] it was 32.4 µM; in test [5], greater than 100 µM; in [7] it was 24.2 µM.
Consider `O=[N+]([O-])c1ccc2c(c1)c(N=NC(=S)Nc1ccc(Cl)cc1)c(O)n2CN1CCOCC1`, for which the TGI in test [1] was found to be 20.8 µM; in test [2], 16.4 µM; in test [10], 12.4 µM; in [3] it was 21.6 µM; in [4] it was 26.2 µM; in test [5], 15.7 µM. Also, the TGI came to 20.8 µM in test [6], 26.5 µM in test [7] and 17.7 µM in [8].

The values above are taken from PubChem BioAssay (NCI).
